According to patent publication US9302991B2, “Arylamide derivatives as TTX-S blockers” (RaQualia Pharma Inc., priority 2010, dated 2016):

How the values were obtained:
[1] = molecular target: T1, human Nav1.7 channels (Homo sapiens, UniProt Q15858); assay: FRET assay, human Nav1.7 (EFS on FDSS); format: cell-based; details: CHO cells expressing human Nav1.7, read-out: IC50 against Nav1.7
T1 construct: expressed in transfected cells; host or cells: CHO
Summary of the method: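 CHO cells stably expressing the channel, loaded with CC2-DMPE (10 µM) then DiSBAC2(3) (15 µM) plus VABSC-1, in HEPES-buffered saline pH 7.4 at room temperature. Electrical field stimulation on FDSS; FRET ratio at 440 nm fitted for IC50.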

[2] = molecular target: T2, human Nav1.3 channels (Homo sapiens, UniProt Q9NY46); assay: FRET assay, human Nav1.3 (EFS on FDSS); format: cell-based; details: HEK293 cells expressing human Nav1.3, read-out: IC50 against Nav1.3
T2 construct: expressed in transfected cells; host or cells: HEK293
T2 sequence (Q9NY46 whole entry): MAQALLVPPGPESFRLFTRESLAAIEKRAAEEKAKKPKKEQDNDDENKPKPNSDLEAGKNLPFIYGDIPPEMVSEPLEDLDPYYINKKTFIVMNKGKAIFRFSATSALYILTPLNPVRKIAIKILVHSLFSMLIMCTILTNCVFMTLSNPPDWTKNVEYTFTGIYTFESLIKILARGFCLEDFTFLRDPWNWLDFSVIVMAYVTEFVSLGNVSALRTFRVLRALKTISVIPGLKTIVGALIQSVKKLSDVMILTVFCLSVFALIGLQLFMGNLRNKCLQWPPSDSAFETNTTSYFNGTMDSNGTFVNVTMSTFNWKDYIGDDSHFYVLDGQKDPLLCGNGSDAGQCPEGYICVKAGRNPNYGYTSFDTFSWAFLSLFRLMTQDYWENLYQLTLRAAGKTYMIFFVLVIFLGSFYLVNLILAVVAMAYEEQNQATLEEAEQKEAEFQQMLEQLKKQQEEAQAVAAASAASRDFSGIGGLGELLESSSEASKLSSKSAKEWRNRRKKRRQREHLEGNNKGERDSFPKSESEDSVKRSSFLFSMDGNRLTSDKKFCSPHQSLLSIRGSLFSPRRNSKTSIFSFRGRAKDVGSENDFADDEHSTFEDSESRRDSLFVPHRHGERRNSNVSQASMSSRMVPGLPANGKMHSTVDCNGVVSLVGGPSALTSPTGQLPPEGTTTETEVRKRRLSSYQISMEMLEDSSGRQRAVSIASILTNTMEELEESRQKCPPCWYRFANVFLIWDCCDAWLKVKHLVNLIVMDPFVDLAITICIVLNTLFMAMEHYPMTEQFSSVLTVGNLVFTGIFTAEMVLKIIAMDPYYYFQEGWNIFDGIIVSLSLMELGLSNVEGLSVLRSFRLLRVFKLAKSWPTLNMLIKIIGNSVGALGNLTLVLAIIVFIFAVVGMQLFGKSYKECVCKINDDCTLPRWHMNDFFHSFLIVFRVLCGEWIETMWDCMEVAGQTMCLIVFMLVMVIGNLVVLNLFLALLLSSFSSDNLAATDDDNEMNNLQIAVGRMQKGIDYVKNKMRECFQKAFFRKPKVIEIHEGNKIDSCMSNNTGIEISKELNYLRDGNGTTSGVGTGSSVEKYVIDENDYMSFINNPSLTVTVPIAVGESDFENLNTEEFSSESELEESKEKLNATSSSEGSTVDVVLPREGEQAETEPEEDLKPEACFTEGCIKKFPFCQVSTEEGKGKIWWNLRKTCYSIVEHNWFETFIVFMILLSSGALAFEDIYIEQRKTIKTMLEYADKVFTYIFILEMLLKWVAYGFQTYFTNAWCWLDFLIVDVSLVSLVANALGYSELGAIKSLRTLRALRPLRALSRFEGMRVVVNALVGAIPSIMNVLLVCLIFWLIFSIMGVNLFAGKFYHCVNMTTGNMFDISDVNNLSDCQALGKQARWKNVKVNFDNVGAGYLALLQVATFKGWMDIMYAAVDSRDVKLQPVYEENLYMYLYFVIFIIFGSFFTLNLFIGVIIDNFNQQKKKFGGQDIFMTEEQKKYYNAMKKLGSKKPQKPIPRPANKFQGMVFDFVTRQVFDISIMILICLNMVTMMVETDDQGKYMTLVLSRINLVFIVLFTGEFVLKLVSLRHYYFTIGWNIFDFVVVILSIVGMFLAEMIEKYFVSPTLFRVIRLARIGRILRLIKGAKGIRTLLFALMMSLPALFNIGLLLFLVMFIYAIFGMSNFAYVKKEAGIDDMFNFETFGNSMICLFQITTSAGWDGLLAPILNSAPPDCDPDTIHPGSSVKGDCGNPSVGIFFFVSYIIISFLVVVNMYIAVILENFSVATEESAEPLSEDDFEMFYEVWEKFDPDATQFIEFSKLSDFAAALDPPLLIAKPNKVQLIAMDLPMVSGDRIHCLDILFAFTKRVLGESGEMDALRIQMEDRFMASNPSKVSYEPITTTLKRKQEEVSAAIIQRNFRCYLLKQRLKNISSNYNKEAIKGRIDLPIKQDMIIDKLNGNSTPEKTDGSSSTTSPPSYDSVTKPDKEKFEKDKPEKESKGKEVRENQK
Summary of the method: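 HEK293 cells expressing the channel, loaded with 10 microM CC2-DMPE then 15 microM DiSBAC2(3) plus 0.555 mM VABSC-1 in pH 7.4 HEPES buffer at room temperature. Membrane potential changes evoked by electrical field stimulation after compound addition; IC50 from 440 nm-normalized FRET ratios.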

T1 sequence (Q15858 whole entry): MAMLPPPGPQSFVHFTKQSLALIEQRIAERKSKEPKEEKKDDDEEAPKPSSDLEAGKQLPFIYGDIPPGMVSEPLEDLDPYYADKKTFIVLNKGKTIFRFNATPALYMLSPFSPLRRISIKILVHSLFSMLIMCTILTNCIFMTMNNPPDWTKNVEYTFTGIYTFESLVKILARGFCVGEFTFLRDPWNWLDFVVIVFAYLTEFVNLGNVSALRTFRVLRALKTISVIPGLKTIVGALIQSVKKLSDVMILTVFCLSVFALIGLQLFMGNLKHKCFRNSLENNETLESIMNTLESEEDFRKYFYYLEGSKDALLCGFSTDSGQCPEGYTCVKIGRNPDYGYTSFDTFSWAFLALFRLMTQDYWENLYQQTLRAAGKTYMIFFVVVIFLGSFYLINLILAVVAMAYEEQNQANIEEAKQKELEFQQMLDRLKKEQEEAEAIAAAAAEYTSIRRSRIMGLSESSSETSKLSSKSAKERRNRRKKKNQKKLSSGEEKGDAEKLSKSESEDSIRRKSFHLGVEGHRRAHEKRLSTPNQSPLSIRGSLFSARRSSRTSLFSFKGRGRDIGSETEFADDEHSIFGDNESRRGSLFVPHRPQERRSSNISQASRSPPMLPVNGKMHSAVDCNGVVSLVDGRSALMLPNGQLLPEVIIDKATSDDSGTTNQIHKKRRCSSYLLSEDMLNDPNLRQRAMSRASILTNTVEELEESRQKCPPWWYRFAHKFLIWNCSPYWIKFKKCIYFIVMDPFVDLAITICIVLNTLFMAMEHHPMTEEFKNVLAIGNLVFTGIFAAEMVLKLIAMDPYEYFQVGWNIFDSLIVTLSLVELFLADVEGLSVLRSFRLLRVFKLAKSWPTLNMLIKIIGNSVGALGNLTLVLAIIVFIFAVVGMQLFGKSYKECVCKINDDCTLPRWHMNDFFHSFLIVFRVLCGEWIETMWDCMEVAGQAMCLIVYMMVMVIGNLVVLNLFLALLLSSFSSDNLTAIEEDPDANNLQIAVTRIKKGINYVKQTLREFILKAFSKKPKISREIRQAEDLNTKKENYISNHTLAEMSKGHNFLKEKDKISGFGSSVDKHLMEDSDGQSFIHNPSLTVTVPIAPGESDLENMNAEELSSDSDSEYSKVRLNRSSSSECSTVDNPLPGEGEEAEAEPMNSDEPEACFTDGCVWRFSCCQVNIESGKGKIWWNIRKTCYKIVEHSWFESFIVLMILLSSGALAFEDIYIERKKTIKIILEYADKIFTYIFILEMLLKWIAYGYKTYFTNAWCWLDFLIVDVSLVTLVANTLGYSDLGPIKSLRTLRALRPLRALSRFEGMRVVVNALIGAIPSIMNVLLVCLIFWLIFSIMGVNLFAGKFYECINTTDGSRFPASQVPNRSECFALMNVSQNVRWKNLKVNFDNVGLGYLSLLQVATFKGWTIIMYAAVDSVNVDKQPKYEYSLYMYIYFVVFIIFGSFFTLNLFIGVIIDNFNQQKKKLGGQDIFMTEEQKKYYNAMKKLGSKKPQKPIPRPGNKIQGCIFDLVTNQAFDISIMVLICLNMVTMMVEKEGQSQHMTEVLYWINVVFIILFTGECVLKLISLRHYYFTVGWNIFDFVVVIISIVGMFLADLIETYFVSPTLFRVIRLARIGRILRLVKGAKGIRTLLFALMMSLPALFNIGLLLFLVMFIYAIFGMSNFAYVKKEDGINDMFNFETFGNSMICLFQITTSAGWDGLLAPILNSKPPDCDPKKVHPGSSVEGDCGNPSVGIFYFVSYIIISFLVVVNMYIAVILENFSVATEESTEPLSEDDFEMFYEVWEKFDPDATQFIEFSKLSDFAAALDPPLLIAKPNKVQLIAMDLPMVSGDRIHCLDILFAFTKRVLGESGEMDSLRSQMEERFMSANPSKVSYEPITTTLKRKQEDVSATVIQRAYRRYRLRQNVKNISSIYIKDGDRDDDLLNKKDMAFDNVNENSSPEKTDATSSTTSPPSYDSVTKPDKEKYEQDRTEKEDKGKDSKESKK

SMILES	IC50 [1]	IC50 [2]
CCC(=O)Nc1cc(C(=O)NCc2cc(C)cc(OC(F)(F)F)c2)cc(C)n1 [Example 600, 2-methyl-N-(3-methyl-5-(trifluoromethoxy)benzyl)-6-propionamidoisonicotinamide]	< 1000 nM	< 1000 nM
CC(=O)Nc1cc(C(=O)NCc2cc(C)cc(OC(F)(F)F)c2)cc(C)n1 [Example 602, 2-acetamido-6-methyl-N-(3-methyl-5-(trifluoromethoxy)benzyl)isonicotinamide]	< 1000 nM	< 1000 nM
CCC(=O)Nc1cc(C(=O)NCc2ccc(OCC(F)(F)C(F)(F)F)nc2)cc(C)n1 [Example 643, 2-methyl-N-((6-(2,2,3,3,3-pentafluoropropoxy)pyridin-3-yl)methyl)-6-propionamidoisonicotinamide]	< 1000 nM	< 1000 nM
O=C(NCc1cnc(OCC(F)F)c(Cl)c1)c1ccnc(NC(=O)C2CC2)n1 [Example 707, N-((5-chloro-6-(2,2-difluoroethoxy)pyridin-3-yl)methyl)-2-(cyclopropanecarboxamido)pyrimidine-4-carboxamide]	< 1000 nM	< 1000 nM
CC(=O)Nc1cc(C(=O)NCc2cccc(OC(F)(F)F)c2F)cc(C)n1 [Example 751, 2-acetamido-N-(2-fluoro-3-(trifluoromethoxy)benzyl)-6-methylisonicotinamide]	< 1000 nM	< 1000 nM
CCCC(=O)Nc1cc(C(=O)NCc2cnc(OCC(F)F)c(C)c2)ccn1 [Example 757, 2-butyramido-N-((6-(2,2-difluoroethoxy)-5-methylpyridin-3-yl)methyl)isonicotinamide]	< 1000 nM	< 1000 nM
CC(=O)Nc1cc(C(=O)NCc2cnc(OCC(F)(F)F)c(Br)c2)ccn1 [Example 762, 2-acetamido-N-((5-bromo-6-(2,2,2-trifluoroethoxy)pyridin-3-yl)methyl)isonicotinamide]	< 1000 nM	< 1000 nM
Cc1cc(C(=O)NCc2ccc(OCC(F)(F)F)c(C)c2)nc(NC(=O)C2CC2)n1 [Example 780, 2-(cyclopropanecarboxamido)-6-methyl-N-(3-methyl-4-(2,2,2-trifluoroethoxy)benzyl)pyrimidine-4-carboxamide]	< 1000 nM	< 1000 nM
CC(=O)Nc1cc(C(=O)NCc2ccc(OCC(F)(F)F)c(C)c2)ccn1 [Example 788, 2-acetamido-N-(3-methyl-4-(2,2,2-trifluoroethoxy)benzyl)isonicotinamide]	< 1000 nM	< 1000 nM
CCC(=O)Nc1cc(C(=O)NCc2ccc(OCC(F)(F)F)c(C)c2)ccn1 [Example 789, N-(3-methyl-4-(2,2,2-trifluoroethoxy)benzyl)-2-propionamidoisonicotinamide]	< 1000 nM	< 1000 nM
Cc1cc(CNC(=O)c2ccnc(NC(=O)C3CC3)c2)ccc1OCC(F)(F)F [Example 790, 2-(cyclopropanecarboxamido)-N-(3-methyl-4-(2,2,2-trifluoroethoxy)benzyl)isonicotinamide]	< 1000 nM	< 1000 nM
Cc1cc(CNC(=O)c2ccnc(NC(=O)C(C)C)c2)ccc1OCC(F)(F)F [Example 791, 2-isobutyramido-N-(3-methyl-4-(2,2,2-trifluoroethoxy)benzyl)isonicotinamide]	< 1000 nM	< 1000 nM
CC(=O)Nc1cc(C(=O)NCc2ccc(OCC(F)(F)F)c(C)c2)cc(C)n1 [Example 792, 2-acetamido-6-methyl-N-(3-methyl-4-(2,2,2-trifluoroethoxy)benzyl)isonicotinamide]	< 1000 nM	< 1000 nM
CCC(=O)Nc1cc(C(=O)NCc2ccc(OCC(F)(F)F)c(C)c2)cc(C)n1 [Example 793, 2-methyl-N-(3-methyl-4-(2,2,2-trifluoroethoxy)benzyl)-6-propionamidoisonicotinamide]	< 1000 nM	< 1000 nM
Cc1cc(C(=O)NCc2ccc(OCC(F)(F)F)c(C)c2)cc(NC(=O)C(C)C)n1 [Example 794, 2-isobutyramido-6-methyl-N-(3-methyl-4-(2,2,2-trifluoroethoxy)benzyl)isonicotinamide]	< 1000 nM	< 1000 nM
CC(=O)Nc1cc(C(=O)NCc2ccc(OC(F)(F)F)c(C)c2)ccn1 [Example 804, 2-acetamido-N-(3-methyl-4-(trifluoromethoxy)benzyl)isonicotinamide]	< 1000 nM	< 1000 nM
CCC(=O)Nc1cc(C(=O)NCc2ccc(OC(F)(F)F)c(C)c2)ccn1 [Example 805, N-(3-methyl-4-(trifluoromethoxy)benzyl)-2-propionamidoisonicotinamide]	< 1000 nM	< 1000 nM

SMILES	IC50 [1]	IC50 [2]
Cc1cc(CNC(=O)c2ccnc(NC(=O)C3CC3)c2)ccc1OC(F)(F)F [Example 806, 2-(cyclopropanecarboxamido)-N-(3-methyl-4-(trifluoromethoxy)benzyl)isonicotinamide]	< 1000 nM	< 1000 nM
Cc1cc(CNC(=O)c2ccnc(NC(=O)C(C)C)c2)ccc1OC(F)(F)F [Example 807, 2-isobutyramido-N-(3-methyl-4-(trifluoromethoxy)benzyl)isonicotinamide]	< 1000 nM	< 1000 nM
CC(=O)Nc1cc(C(=O)NCc2ccc(OC(F)(F)F)c(C)c2)cc(C)n1 [Example 808, 2-acetamido-6-methyl-N-(3-methyl-4-(trifluoromethoxy)benzyl)isonicotinamide]	< 1000 nM	< 1000 nM
Cc1cc(C(=O)NCc2ccc(OC(F)(F)F)c(C)c2)cc(NC(=O)C(C)C)n1 [Example 809, 2-isobutyramido-6-methyl-N-(3-methyl-4-(trifluoromethoxy)benzyl)isonicotinamide]	< 1000 nM	< 1000 nM
Cc1cc(CNC(=O)c2ccnc(NC(=O)C3CC3)n2)ccc1OC(F)(F)F [Example 810, 2-(cyclopropanecarboxamido)-N-(3-methyl-4-(trifluoromethoxy)benzyl)pyrimidine-4-carboxamide]	< 1000 nM	< 1000 nM
Cc1cc(C(=O)NCc2ccc(OC(F)(F)F)c(C)c2)nc(NC(=O)C2CC2)n1 [Example 811, 2-(cyclopropanecarboxamido)-6-methyl-N-(3-methyl-4-(trifluoromethoxy)benzyl)pyrimidine-4-carboxamide]	< 1000 nM	< 1000 nM
CC(=O)Nc1cc(C(=O)NCc2cccc(C(F)(F)F)c2C)cc(C)n1 [Example 815, 2-acetamido-6-methyl-N-(2-methyl-3-(trifluoromethyl)benzyl)isonicotinamide]	< 1000 nM	< 1000 nM
Cc1c(CNC(=O)c2ccnc(NC(=O)C(C)C)c2)cccc1C(F)(F)F [Example 816, 2-isobutyramido-N-(2-methyl-3-(trifluoromethyl)benzyl)isonicotinamide]	< 1000 nM	< 1000 nM
Cc1cc(C(=O)NCc2cnc(OCC(F)(F)F)c(C)c2)cc(NC(=O)C2CC2)n1 [Example 824, 2-(cyclopropanecarboxamido)-6-methyl-N-((5-methyl-6-(2,2,2-trifluoroethoxy)pyridin-3-yl)methyl)isonicotinamide]	< 1000 nM	< 1000 nM
CCc1cc(CNC(=O)c2cc(C)nc(NC(=O)C3CC3)c2)cnc1OCC(F)(F)F [Example 825, 2-(cyclopropanecarboxamido)-N-((5-ethyl-6-(2,2,2-trifluoroethoxy)pyridin-3-yl)methyl)-6-methylisonicotinamide]	< 1000 nM	< 1000 nM
Cc1cc(C(=O)NCc2ccc(OCC(F)(F)F)c(C)c2)cc(NC(=O)C2CC2)n1 [Example 831, 2-(cyclopropanecarboxamido)-6-methyl-N-(3-methyl-4-(2,2,2-trifluoroethoxy)benzyl)isonicotinamide]	< 1000 nM	< 1000 nM
Cc1cc(C(=O)NCc2cccc(OC(F)(F)F)c2)cc(NC(=O)C2CC2)n1 [Example 836, 2-(cyclopropanecarboxamido)-6-methyl-N-(3-(trifluoromethoxy)benzyl)isonicotinamide]	< 1000 nM	< 1000 nM
COc1c(CNC(=O)c2cc(C)nc(NC(=O)C(C)C)c2)cccc1C(F)(F)F [Example 880, 2-isobutyramido-N-(2-methoxy-3-(trifluoromethyl)benzyl)-6-methylisonicotinamide]	< 1000 nM	< 1000 nM
CCC(=O)Nc1cc(C(=O)NCc2cnc(OCC(F)(F)F)c(Br)c2)ccn1 [Example 895, N-((5-bromo-6-(2,2,2-trifluoroethoxy)pyridin-3-yl)methyl)-2-propionamidoisonicotinamide]	< 1000 nM	< 1000 nM
O=C(NCc1cnc(OCC(F)(F)F)c(Br)c1)c1ccnc(NC(=O)C2CC2)c1 [Example 896, N-((5-bromo-6-(2,2,2-trifluoroethoxy)pyridin-3-yl)methyl)-2-(cyclopropanecarboxamido)isonicotinamide]	< 1000 nM	< 1000 nM
O=C(NCc1cnc(OCC(F)(F)F)c(Br)c1)c1ccnc(NC(=O)C2CC2)n1 [Example 898, N-((5-bromo-6-(2,2,2-trifluoroethoxy)pyridin-3-yl)methyl)-2-(cyclopropanecarboxamido)pyrimidine-4-carboxamide]	< 1000 nM	< 1000 nM
CC(=O)Nc1cc(C(=O)NCc2cnc(OCC(F)(F)F)c(Br)c2)cc(C)n1 [Example 899, 2-acetamido-N-((5-bromo-6-(2,2,2-trifluoroethoxy)pyridin-3-yl)methyl)-6-methylisonicotinamide]	< 1000 nM	< 1000 nM
